Measured values: US8987267B2, “2-substituted-8-alkyl-7-OXO-7,8-dihydropyrido[2,3-D]pyrimidine-6-carbonitriles and uses thereof in treating proliferative disorders” (Temple University—of the Commonwealth System of Higher …, priority 2010, dated 2015)

Legend:
EPHA2 = EPHA2 (Homo sapiens, UniProt P29317); assay: Kinase inhibition panel; type: biochemical; conditions: 10 μM ATP
FRK/PTK5 = FRK/PTK5 (Homo sapiens, UniProt P42685); assay: Kinase inhibition panel; type: biochemical; conditions: 10 μM ATP
TAOK1 = TAOK1 (Homo sapiens, UniProt Q7L7X3); assay: Kinase inhibition panel; type: biochemical; conditions: 10 μM ATP
ARK5 = ARK5 (Homo sapiens, UniProt O60285); assay: Kinase inhibition panel; type: biochemical; conditions: 10 μM ATP
PDGFRb = PDGFRb (Homo sapiens, UniProt P09619); assay: Kinase inhibition panel; type: biochemical; conditions: 10 μM ATP
TBK1 = TBK1 (Homo sapiens, UniProt Q9UHD2); assay: Kinase inhibition panel; type: biochemical; conditions: 10 μM ATP
CDK6/cyclinD3 = CDK6/cyclinD3 (Homo sapiens, UniProt Q00534); assay: Kinase inhibition panel; type: biochemical; conditions: 10 μM ATP
ZAK/MLTK = ZAK/MLTK (Homo sapiens, UniProt Q9NYL2); assay: Kinase inhibition panel; type: biochemical; conditions: 10 μM ATP
CDK7/cyclinH/MNAT1 = CDK7/cyclinH/MNAT1 (Homo sapiens, UniProt P50613); assay: Kinase inhibition panel; type: biochemical; conditions: 10 μM ATP
YES/YES1 = YES/YES1 (Homo sapiens, UniProt P07947); assay: Kinase inhibition panel; type: biochemical; conditions: 10 μM ATP
NLK = NLK (Homo sapiens, UniProt Q9UBE8); assay: Kinase inhibition panel; type: biochemical; conditions: 10 μM ATP
SW480 = assay: Cytotoxicity assay, viable cell count; type: cell-based; conditions: Homo sapiens; SW480, COLO-RECTAL; 96 h continuous treatment, trypan blue
Experimental: (§1) Cells (1×10^5) were plated into 6-well dishes and 24 h later 8-cyclopentyl-2-((4-(4-methylpiperazin-1-yl)phenyl)amino)-7-oxo-7,8-dihydropyrido[2,3-d]pyrimidine-6-carbonitrile (12) was added at five different concentrations over a 2 log dilution (1-100 μM). The total number of viable cells was determined after 96 h of continuous treatment by staining with trypan blue and counting the number of non-staining cells (viable) remaining in each well using a hemacytometer. The percentage of viable cells remaining was calculated as follows: # viable cells (compound treated)/# viable cells (DMSO treated)*100.

N417 = assay: Cytotoxicity assay, viable cell count; type: cell-based; conditions: N417, SCLC; 96 h continuous treatment, trypan blue
Experimental: as §1

MIA-PaCa-2 = assay: Cytotoxicity assay, viable cell count; type: cell-based; conditions: Homo sapiens; MIA-PaCa-2, Pancreatic; 96 h continuous treatment, trypan blue
Experimental: as §1

SNU-5 = assay: Cytotoxicity assay, viable cell count; type: cell-based; conditions: Homo sapiens; SNU-5, Gastric; 96 h continuous treatment, trypan blue
Experimental: as §1

U87 = assay: Cytotoxicity assay, viable cell count; type: cell-based; conditions: Homo sapiens, U-87 MG; U87, Glioblastoma; 96 h continuous treatment, trypan blue
Experimental: as §1

N87 = assay: Cytotoxicity assay, viable cell count; type: cell-based; conditions: N87, Gastric(ErbB2+); 96 h continuous treatment, trypan blue
Experimental: as §1

K562 = assay: Cytotoxicity assay, viable cell count; type: cell-based; conditions: Homo sapiens; K562, CML; 96 h continuous treatment, trypan blue
Experimental: as §1

U266 = assay: Cytotoxicity assay, viable cell count; type: cell-based; conditions: Homo sapiens, U-266; U266, Multiple Myeloma; 96 h continuous treatment, trypan blue
Experimental: as §1

SK-OV-3 = assay: Cytotoxicity assay, viable cell count; type: cell-based; conditions: Homo sapiens; SK-OV-3, Ovarian; 96 h continuous treatment, trypan blue
Experimental: as §1

JURKAT = assay: Cytotoxicity assay, viable cell count; type: cell-based; conditions: Homo sapiens, T-Cell Lymphoma, 96 h continuous treatment, trypan blue
Experimental: as §1

GRANTA-519 = assay: Cytotoxicity assay, viable cell count; type: cell-based; conditions: Homo sapiens; GRANTA-519, MCL; 96 h continuous treatment, trypan blue
Experimental: as §1

COLO-205 = assay: Cytotoxicity assay, viable cell count; type: cell-based; conditions: Homo sapiens; COLO-205, Colon; 96 h continuous treatment, trypan blue
Experimental: as §1

SNU-475 = assay: Cytotoxicity assay, viable cell count; type: cell-based; conditions: Homo sapiens; SNU-475, Hepatocellular carcinoma; 96 h continuous treatment, trypan blue
Experimental: as §1

SNU-398 = assay: Cytotoxicity assay, viable cell count; type: cell-based; conditions: Homo sapiens; SNU-398, Liver; 96 h continuous treatment, trypan blue
Experimental: as §1

SNU-449 = assay: Cytotoxicity assay, viable cell count; type: cell-based; conditions: Homo sapiens; SNU-449, Liver; 96 h continuous treatment, trypan blue
Experimental: as §1

HELA = assay: Cytotoxicity assay, viable cell count; type: cell-based; conditions: Homo sapiens, Cervical, 96 h continuous treatment, trypan blue
Experimental: as §1

BT474 = assay: Cytotoxicity assay, viable cell count; type: cell-based; conditions: Homo sapiens, BT-474; BT474, ErbB2 + Breast; 96 h continuous treatment, trypan blue
Experimental: as §1

RAJI = assay: Cytotoxicity assay, viable cell count; type: cell-based; conditions: Homo sapiens, B-Cell Lymphoma, 96 h continuous treatment, trypan blue
Experimental: as §1

DU145 = assay: Cytotoxicity assay, viable cell count; type: cell-based; conditions: Homo sapiens, DU-145; DU145, PROSTATE; 96 h continuous treatment, trypan blue
Experimental: as §1

A549 = assay: Cytotoxicity assay, viable cell count; type: cell-based; conditions: Homo sapiens; A549, NSCLC; 96 h continuous treatment, trypan blue
Experimental: as §1

DLD-1 = assay: Cytotoxicity assay, viable cell count; type: cell-based; conditions: Homo sapiens; DLD-1, COLO-RECTAL; 96 h continuous treatment, trypan blue
Experimental: as §1

FLT4NEGFR3 = FLT4NEGFR3 (Homo sapiens, UniProt P35916); assay: Kinase inhibition panel; type: biochemical; conditions: 10 μM ATP
FGFR4 = FGFR4 (Homo sapiens, UniProt P22455); assay: Kinase inhibition panel; type: biochemical; conditions: 10 μM ATP
FGR = FGR (Homo sapiens, UniProt P09769); assay: Kinase inhibition panel; type: biochemical; conditions: 10 μM ATP
FGFR2 = FGFR2 (Homo sapiens, UniProt P21802); assay: Kinase inhibition panel; type: biochemical; conditions: 10 μM ATP

Sequence of TBK1 (Q9UHD2 whole entry, species assumed): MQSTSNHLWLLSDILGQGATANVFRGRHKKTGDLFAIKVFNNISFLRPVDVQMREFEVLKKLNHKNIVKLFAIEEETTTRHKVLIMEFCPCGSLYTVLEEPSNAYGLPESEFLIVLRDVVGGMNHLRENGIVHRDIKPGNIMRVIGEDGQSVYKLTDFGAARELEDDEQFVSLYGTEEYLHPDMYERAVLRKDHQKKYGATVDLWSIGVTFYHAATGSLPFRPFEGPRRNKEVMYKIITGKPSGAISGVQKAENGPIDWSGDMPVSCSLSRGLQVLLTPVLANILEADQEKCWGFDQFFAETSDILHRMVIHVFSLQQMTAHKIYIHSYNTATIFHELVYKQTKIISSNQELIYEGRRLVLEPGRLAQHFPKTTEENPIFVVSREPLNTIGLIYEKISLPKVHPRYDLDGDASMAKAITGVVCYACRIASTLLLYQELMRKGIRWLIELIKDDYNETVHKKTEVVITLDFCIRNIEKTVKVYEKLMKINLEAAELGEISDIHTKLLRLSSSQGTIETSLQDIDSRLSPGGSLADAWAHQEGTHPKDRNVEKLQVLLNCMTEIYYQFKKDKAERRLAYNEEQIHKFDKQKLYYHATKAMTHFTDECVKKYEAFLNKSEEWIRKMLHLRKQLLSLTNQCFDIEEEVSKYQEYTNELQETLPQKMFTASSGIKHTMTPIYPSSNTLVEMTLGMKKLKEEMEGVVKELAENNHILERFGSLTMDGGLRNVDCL
Sequence of PDGFRb (P09619 33-1106, species assumed): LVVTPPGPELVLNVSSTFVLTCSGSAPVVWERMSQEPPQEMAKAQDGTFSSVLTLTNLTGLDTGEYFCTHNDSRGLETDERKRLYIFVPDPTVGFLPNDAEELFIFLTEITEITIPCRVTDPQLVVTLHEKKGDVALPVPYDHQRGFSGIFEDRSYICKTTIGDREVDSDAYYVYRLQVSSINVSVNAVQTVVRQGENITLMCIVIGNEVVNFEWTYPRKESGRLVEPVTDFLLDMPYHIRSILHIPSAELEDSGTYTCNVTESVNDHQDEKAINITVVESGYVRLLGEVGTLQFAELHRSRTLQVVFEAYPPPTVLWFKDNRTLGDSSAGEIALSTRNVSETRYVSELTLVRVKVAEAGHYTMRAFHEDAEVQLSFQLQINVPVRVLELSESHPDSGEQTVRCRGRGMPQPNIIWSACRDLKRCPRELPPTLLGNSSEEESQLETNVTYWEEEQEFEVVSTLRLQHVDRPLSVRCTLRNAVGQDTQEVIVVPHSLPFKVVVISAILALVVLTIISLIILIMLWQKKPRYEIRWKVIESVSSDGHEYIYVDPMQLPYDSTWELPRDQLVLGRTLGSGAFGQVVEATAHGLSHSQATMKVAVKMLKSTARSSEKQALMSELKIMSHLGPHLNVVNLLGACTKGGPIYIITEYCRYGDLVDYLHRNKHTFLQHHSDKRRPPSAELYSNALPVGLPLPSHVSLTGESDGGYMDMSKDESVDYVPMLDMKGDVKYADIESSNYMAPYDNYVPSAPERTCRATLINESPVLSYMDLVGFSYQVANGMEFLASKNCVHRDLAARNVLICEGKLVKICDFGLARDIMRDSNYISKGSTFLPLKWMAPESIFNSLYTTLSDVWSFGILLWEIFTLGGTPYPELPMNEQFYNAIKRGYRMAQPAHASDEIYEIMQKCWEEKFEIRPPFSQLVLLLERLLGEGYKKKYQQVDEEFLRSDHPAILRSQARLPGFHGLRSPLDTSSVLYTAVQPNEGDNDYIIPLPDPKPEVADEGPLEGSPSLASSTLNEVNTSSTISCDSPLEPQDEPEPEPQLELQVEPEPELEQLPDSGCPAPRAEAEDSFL
Sequence of TAOK1 (Q7L7X3 whole entry, species assumed): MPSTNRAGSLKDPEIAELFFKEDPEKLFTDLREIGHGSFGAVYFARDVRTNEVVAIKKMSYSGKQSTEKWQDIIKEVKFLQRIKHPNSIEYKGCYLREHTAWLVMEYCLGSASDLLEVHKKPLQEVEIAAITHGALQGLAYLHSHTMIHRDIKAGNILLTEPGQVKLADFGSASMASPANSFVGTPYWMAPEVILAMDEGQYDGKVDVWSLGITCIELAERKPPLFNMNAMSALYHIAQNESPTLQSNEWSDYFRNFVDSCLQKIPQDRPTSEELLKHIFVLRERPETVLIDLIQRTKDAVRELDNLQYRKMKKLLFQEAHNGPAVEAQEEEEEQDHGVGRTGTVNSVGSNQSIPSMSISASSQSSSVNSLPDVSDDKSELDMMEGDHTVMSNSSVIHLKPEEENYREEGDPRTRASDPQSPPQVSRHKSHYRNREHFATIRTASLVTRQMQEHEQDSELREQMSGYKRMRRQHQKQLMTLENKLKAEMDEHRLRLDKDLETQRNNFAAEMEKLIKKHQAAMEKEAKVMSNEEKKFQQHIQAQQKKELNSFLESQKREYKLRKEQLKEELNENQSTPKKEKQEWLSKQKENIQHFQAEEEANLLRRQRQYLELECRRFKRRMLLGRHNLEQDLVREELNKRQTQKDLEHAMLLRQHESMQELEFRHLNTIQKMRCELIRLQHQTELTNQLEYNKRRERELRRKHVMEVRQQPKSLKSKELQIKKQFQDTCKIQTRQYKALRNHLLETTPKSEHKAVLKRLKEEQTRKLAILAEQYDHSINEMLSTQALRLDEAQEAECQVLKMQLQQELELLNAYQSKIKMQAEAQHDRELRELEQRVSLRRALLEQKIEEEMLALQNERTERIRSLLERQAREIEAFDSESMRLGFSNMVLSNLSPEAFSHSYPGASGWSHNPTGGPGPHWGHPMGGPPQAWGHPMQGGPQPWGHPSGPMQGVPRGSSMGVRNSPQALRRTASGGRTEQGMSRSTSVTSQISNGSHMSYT
Sequence of FLT4NEGFR3 (P35916 25-1363): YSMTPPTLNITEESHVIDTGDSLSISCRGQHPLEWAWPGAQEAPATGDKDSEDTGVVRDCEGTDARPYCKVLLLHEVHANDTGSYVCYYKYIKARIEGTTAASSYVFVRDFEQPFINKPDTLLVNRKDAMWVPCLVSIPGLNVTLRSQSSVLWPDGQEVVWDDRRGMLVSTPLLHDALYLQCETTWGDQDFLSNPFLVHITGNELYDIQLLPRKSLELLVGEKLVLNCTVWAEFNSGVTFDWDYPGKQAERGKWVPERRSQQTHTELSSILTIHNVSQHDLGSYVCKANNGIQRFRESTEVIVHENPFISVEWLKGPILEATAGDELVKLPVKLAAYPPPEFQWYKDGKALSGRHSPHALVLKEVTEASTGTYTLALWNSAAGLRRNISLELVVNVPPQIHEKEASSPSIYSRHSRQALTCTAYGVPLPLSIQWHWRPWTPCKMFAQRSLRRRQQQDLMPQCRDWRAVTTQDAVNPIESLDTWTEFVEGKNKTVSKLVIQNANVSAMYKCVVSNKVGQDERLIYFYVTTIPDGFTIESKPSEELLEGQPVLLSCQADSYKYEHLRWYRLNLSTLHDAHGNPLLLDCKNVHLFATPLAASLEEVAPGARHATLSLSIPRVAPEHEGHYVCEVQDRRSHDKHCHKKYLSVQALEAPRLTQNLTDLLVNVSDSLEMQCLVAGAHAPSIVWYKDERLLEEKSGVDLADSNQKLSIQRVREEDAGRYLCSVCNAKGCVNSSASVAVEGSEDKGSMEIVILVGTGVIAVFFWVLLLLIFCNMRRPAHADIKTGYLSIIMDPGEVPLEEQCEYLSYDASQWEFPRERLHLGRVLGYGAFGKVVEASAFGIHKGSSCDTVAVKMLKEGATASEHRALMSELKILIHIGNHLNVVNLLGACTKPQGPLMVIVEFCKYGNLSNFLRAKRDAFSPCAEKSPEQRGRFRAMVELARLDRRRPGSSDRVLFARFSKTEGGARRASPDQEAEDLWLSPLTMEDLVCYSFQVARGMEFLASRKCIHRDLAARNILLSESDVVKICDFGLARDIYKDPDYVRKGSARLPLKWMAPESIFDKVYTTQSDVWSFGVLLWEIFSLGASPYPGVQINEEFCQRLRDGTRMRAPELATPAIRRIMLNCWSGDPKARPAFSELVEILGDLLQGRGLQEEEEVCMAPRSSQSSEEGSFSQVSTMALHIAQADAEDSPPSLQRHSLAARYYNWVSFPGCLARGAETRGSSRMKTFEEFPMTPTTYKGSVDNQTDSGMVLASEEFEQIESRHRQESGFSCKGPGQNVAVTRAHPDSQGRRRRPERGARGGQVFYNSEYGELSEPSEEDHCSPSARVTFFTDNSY
Sequence of ZAK/MLTK (Q9NYL2 whole entry): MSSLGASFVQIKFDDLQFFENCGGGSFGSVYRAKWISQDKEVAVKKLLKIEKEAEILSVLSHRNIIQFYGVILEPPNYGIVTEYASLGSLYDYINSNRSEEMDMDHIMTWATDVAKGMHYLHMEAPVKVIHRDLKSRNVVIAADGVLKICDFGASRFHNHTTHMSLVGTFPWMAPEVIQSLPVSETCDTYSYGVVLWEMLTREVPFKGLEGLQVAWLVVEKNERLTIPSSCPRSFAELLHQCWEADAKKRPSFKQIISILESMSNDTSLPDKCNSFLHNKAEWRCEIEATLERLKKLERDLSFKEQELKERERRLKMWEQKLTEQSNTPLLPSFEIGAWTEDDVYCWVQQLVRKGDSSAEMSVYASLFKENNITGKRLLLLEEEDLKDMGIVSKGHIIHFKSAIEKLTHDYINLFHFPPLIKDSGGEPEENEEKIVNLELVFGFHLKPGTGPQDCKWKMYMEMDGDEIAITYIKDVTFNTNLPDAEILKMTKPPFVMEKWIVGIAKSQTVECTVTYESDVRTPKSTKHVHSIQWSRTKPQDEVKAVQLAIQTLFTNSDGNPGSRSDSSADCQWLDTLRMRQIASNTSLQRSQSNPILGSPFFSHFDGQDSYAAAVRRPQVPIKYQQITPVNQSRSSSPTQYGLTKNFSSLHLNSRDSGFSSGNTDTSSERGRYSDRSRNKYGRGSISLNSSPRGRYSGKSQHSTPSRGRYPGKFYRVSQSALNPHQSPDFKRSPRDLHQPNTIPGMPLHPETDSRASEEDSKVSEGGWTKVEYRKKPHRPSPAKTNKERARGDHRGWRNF

**Q.** CN1CCN(c2ccc(Nc3ncc4cc(C#N)c(=O)n(C5CCCC5)c4n3)cc2)CC1 [Compound 12, 8-cyclopentyl-2-((4-(4-methylpiperazin-1-yl)phenyl)amino)-7-oxo-7,8-dihydropyrido[2,3-d]pyrimidine-6-carbonitrile] was tested. Which IC50 (EPHA2) did it give?
**A.** 114 nM

**Q.** And the IC50 (FRK/PTK5)?
**A.** 575 nM

**Q.** And the IC50 (TAOK1)?
**A.** 78.7 nM

**Q.** What about the IC50 (ARK5) of the same molecule?
**A.** 7.85 nM

**Q.** What about the IC50 (PDGFRb) of the same molecule?
**A.** 2.64 nM

**Q.** What about the IC50 (TBK1) of the same molecule?
**A.** 71.8 nM

**Q.** And the IC50 (CDK6/cyclinD3)?
**A.** 38.7 nM

**Q.** What about the IC50 (ZAK/MLTK) of the same molecule?
**A.** 29.5 nM

**Q.** What about the IC50 (CDK7/cyclinH/MNAT1) of the same molecule?
**A.** > 10000 nM

**Q.** And the IC50 (YES/YES1)?
**A.** 38.1 nM

**Q.** And the IC50 (NLK)?
**A.** 45.3 nM

**Q.** And the GI50 (SW480)?
**A.** 100 nM

**Q.** And the GI50 (N417)?
**A.** 250 nM

**Q.** And the GI50 (MIA-PaCa-2)?
**A.** 250 nM

**Q.** What about the GI50 (SNU-5) of the same molecule?
**A.** 200 nM

**Q.** And the GI50 (U87)?
**A.** 100 nM

**Q.** What about the GI50 (N87) of the same molecule?
**A.** 900 nM

**Q.** And the GI50 (K562)?
**A.** 500 nM

**Q.** And the GI50 (U266)?
**A.** 200 nM

**Q.** What about the GI50 (SK-OV-3) of the same molecule?
**A.** 750 nM

**Q.** What about the GI50 (JURKAT) of the same molecule?
**A.** 150 nM

**Q.** And the GI50 (GRANTA-519)?
**A.** 75 nM

**Q.** What about the GI50 (COLO-205) of the same molecule?
**A.** 200 nM

**Q.** What about the GI50 (SNU-475) of the same molecule?
**A.** 300 nM

**Q.** What about the GI50 (SNU-398) of the same molecule?
**A.** 500 nM

**Q.** What about the GI50 (SNU-449) of the same molecule?
**A.** 750 nM

**Q.** And the GI50 (HELA)?
**A.** 750 nM

**Q.** What about the GI50 (BT474) of the same molecule?
**A.** 250 nM

**Q.** What about the GI50 (RAJI) of the same molecule?
**A.** 250 nM

**Q.** And the GI50 (DU145)?
**A.** 750 nM

**Q.** What about the GI50 (A549) of the same molecule?
**A.** 200 nM

**Q.** What about the GI50 (DLD-1) of the same molecule?
**A.** 100 nM

**Q.** And the IC50 (FLT4NEGFR3)?
**A.** 63.5 nM

**Q.** What about the IC50 (FGFR4) of the same molecule?
**A.** 3550 nM

**Q.** And the IC50 (FGR)?
**A.** 112 nM

**Q.** And the IC50 (FGFR2)?
**A.** 54.8 nM
